{"source": "patent US20110152166A1", "about": "“METHOD OF MODULATION OF PROTEIN PHOSPHORYLATION-DEPENDENT CONFORMATIONAL TRANSITIONS WITH LOW MOLECULAR WEIGHT COMPOUNDS” (priority 2006, published 2011)", "key": {"GST-PDK1 [Gln150Ala]": {"target": "T1, GST-PDK1 [Gln150Ala] (Homo sapiens, UniProt O15530, Q150A)", "T1 construct": "different protein constructs, comprising the full length protein or the catalytic domain alone; made in house; host or cells: HEK293 cells (pEBG-2T-PDK1 mutant)", "T1 sequence (O15530 1-556 Q150A)": "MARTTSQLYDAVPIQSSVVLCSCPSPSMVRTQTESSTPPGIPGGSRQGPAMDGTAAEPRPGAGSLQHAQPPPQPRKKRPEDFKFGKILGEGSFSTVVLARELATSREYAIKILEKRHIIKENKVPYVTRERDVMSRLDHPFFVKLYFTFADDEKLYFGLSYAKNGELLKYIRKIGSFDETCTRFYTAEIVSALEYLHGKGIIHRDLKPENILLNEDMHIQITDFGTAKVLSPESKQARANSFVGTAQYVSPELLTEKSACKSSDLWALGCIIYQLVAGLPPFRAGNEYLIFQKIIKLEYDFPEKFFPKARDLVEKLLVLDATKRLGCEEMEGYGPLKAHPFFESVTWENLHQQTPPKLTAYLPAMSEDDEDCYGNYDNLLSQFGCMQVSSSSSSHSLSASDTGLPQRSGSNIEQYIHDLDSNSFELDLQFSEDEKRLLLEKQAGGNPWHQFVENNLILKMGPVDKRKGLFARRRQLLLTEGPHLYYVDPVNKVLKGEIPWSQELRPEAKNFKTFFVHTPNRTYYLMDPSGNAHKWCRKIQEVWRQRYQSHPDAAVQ", "test": "PDK1 activity assay with T308tide", "type": "biochemical", "conditions": "for AC50 / Max. activity: GST-PDK1 [Gln150Ala]; for activation of PDK1 mutant (in words): PDK1[Gln150Ala], 20 μM", "method": "(§1) Protein kinase activity tests were performed essentially as previously described (Balendran et al., 2000; Biondi et al., 2000; Biondi et al., 2001). Substrates used were either MBP (for PKCζ or polypeptides (Crosstide for PKB, S6K, SGK and PRK2; T308tide for PDK1, and Kemptide for PKA). PKA (Sigma) was measured in the presence of 100 μM cAMP. Alternatively, assays were performed in a 96 well format, aliquots spotted on p81 phosphocellulose papers (Whatmann), washed in 0.01% phosphoric acid, dried, and then exposed and analysed using Phospholmager technology (Storm, Molecular Dynamics). Activity measurements were performed in duplicates with less than 10% difference between duplicate pairs. Experiments were repeated at least twice, although most of the experiments were repeated multiple times, with similar results.\n(§2) PDK1 activity assay was performed in a 20 μl mix containing 50 mM Tris-HCl pH 7.5, 0.05 mg/ml BSA, 0.1% β-mercaptoethanol, 10 mM MgCl2, 100 μM [γ^32P]ATP (5-50 cpm/pmol), 0.003% Brij, 150 ng PDK1, and T308tide (from 0.05 to 1 mM). PDK1 specific activity was approximately 5 U/mg (when measured at 1 mM T308tide). The effect of small compounds on PDK1 was repeated with proteins from different purification batches and with different protein constructs, comprising the full length protein or the catalytic domain alone, with similar results. […] This variability may be due to the PIFtide/compound-stimulated autophosphorylation of the activation loop in certain preparations having less than a 1:1 molar phosphorylation stoichiometry at this site.\n(§3) PDK1 activity was measured at room temperature using a polypeptide substrate derived from the activation loop phosphorylation site of PKB, T308tide (0.1 mM). […] GST-PDK1 wt was purified in numerous occasions and the maximal activation level of different batches varied between 3 and 8 fold activation with PIFtide or compound 1. Variations in the basal activity and fold activation were also observed in mutants. Therefore, comparisons in the maximal level of activation between mutants should be performed with care. The data shown are from an experiment where PIFtide concentrations were tested between 50 nM and 20 µM and compound 1 concentrations were between 5 μM and 200 μM, in triplicate. AC50 and max. activity were estimated by fitting the data to a hyperbola using Kaleidagraph software. One Unit of PDK1 activity was defined as the amount required to catalyse the phosphorylation of 1 nmol of the T308tide in 1 min."}, "GST-PDK1 wt": {"target": "T2, GST-PDK1 wt (Homo sapiens, UniProt O15530)", "T2 construct": "different protein constructs, comprising the full length protein or the catalytic domain alone; made in house; host or cells: HEK293 cells (pEBG-2T-PDK1)", "T2 sequence (O15530 1-556)": "T1 sequence (O15530 1-556 Q150A) with A150Q", "test": "PDK1 activity assay with T308tide", "type": "biochemical", "conditions": "for PDK1 (%) activity: 1% DMSO = 100%; for activation of PDK1 (in words): PDK1 wild type", "method": "as §1, §2, §3"}, "[1]": {"conditions": "GST-PDK1 wt, T308tide 0.1 mM, read-out: AC50"}}, "note": "Substitutions are numbered along the chain they refer to. Where two headings read alike, the source gives them in different places. Square brackets hold non-standard residues; d marks the D form. Ends that are not written are not given here. pS = N[C@@H](COP(=O)(O)O)C(=O)O"}
{"compound": "O=C(O)CSC(CC(=O)c1ccc(Cl)cc1)c1ccccc1", "note": "(stereo not drawn) [Compound 1]", "values": [{"measurement": "AC50", "setting": "GST-PDK1 [Gln150Ala]", "value": "55 ± 9", "unit": "µM"}, {"measurement": "Max. activity", "setting": "GST-PDK1 [Gln150Ala]", "value": "1.12 ± 0.06", "unit": "U/mg"}, {"measurement": "activation of PDK1 mutant (in words)", "setting": "GST-PDK1 [Gln150Ala]", "value": "still activated"}, {"measurement": "PDK1 (%) activity", "setting": "GST-PDK1 wt; 20 μM compound", "value": 234, "unit": "%"}, {"measurement": "PDK1 (%) activity", "setting": "GST-PDK1 wt; 200 μM compound", "value": 370, "unit": "%"}, {"measurement": "AC50", "setting": "GST-PDK1 wt; FIG. 2B, read-out: AC50 of PDK1 activation", "value": 25, "unit": "µM"}, {"measurement": "Max. activity", "setting": "GST-PDK1 wt; GST-PDK1 wt, T308tide 0.1 mM", "value": "1.1 ± 0.07", "unit": "U/mg"}, {"measurement": "AC50", "setting": "GST-PDK1 wt; [1]", "value": "34 ± 9", "unit": "µM"}, {"measurement": "activation of PDK1 (in words)", "setting": "GST-PDK1 wt", "value": "activated PDK1"}]}
{"compound": "COC(=O)CSC(CC(=O)c1ccc(Cl)cc1)c1ccccc1", "note": "(stereo not drawn) [Compound 2]", "values": [{"measurement": "PDK1 (%) activity", "setting": "GST-PDK1 wt; 20 μM compound", "value": 109, "unit": "%"}, {"measurement": "PDK1 (%) activity", "setting": "GST-PDK1 wt; 200 μM compound", "value": 124, "unit": "%"}, {"measurement": "activation of PDK1 (in words)", "setting": "GST-PDK1 wt", "value": "inactive"}]}
{"compound": "P-HM-RSK: phosphorylated HM polypeptide of RSK: KGAGGGGFRGFS(P)FVA (KGAGGGGFRGF[pS]FVA)", "values": [{"measurement": "activation of PDK1 mutant (in words)", "setting": "GST-PDK1 [Gln150Ala]", "value": "completely abolished"}, {"measurement": "activation of PDK1 (in words)", "setting": "GST-PDK1 wt", "value": "activated"}]}
{"compound": "REPRILSEEEQEMFRDFDYIADWC [PIFtide, reference compound]", "values": [{"measurement": "AC50", "setting": "GST-PDK1 [Gln150Ala]", "value": "0.5 ± 0.06", "unit": "µM"}, {"measurement": "Max. activity", "setting": "GST-PDK1 [Gln150Ala]", "value": "1.55 ± 0.06", "unit": "U/mg"}, {"measurement": "Max. activity", "setting": "GST-PDK1 wt; GST-PDK1 wt, T308tide 0.1 mM", "value": "0.9 ± 0.05", "unit": "U/mg"}, {"measurement": "AC50", "setting": "GST-PDK1 wt; [1]", "value": "0.11 ± 0.03", "unit": "µM"}]}
